For 26 compounds, IC50 results are on record in patent publication US10894784B2, “Heteroarylbenzimidazole compounds” (BAYER PHARMA AKTIENGESELLSCHAFT, priority 2015, dated 2021).

Sequence of TBK1 (Q9UHD2 whole entry): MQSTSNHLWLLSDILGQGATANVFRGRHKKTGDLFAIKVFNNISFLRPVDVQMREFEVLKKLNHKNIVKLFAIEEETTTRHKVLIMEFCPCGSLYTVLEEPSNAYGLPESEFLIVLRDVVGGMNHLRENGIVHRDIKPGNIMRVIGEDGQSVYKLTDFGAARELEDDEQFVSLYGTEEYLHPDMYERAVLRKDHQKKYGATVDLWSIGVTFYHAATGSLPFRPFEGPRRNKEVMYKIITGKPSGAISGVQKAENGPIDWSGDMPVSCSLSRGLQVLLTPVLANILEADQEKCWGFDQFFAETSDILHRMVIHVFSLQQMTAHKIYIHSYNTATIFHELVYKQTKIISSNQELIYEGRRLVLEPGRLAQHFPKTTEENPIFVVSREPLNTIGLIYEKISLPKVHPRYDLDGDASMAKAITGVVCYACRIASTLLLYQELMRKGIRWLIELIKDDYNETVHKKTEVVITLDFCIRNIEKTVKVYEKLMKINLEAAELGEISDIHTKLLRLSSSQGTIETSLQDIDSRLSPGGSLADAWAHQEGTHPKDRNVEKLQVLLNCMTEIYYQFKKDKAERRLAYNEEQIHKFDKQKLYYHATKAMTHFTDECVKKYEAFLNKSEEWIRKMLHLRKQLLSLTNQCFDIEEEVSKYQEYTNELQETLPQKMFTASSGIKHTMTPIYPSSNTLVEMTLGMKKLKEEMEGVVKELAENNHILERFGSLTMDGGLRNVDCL

The test addresses TBK1 (Homo sapiens (Human), UniProt Q9UHD2). Put plainly: TBK1 low ATP kinase assay (in vitro assay 1). The settings on record: in vitro assay 1, read-out: TBK1 low ATP kinase assay IC50. In kind it is biochemical.
In the case of `CC(C)Oc1cnccc1-c1ccc2nc(Nc3cc(CN4CCN(C(=O)C5CC5)CC4)ccn3)[nH]c2c1` [Example 06.02, cyclopropyl(4-{[2-({6-[3-(propan-2-yloxy)pyridin-4-yl]-1H-benzimidazol-2-yl}amino)pyridin-4-yl]methyl}piperazin-1-yl)methanone], the IC50 (in general, the point on the concentration scale where inhibition reaches its midpoint) was determined as 7.12 nM.

For `COCc1cc(-c2ccc3nc(Nc4cc(C(C)N5CCN(C(=O)C6CC6)CC5)ccn4)[nH]c3c2)ncn1` (single isomer, unassigned) [Example 84.03, cyclopropyl(4-{(1R or 1S)-1-[2-({6-[6-(methoxymethyl)pyrimidin-4-yl]-1H-benzimidazol-2-yl}amino)pyridin-4-yl]ethyl}piperazin-1-yl)methanone], the IC50 stood at 1.7 nM.

In the case of `CC(C)(C)OC(=O)N1CCN(Cc2ccnc(Nc3nc4ccc(-c5cc(C6=CCOCC6)ncn5)cc4[nH]3)c2)CC1` [Example 198.01, tert-butyl 4-{[2-({6-[6-(3,6-dihydro-2H-pyran-4-yl)pyrimidin-4-yl]-1H-benzimidazol-2-yl}amino)pyridin-4-yl]methyl}piperazine-1-carboxylate], the IC50 amounted to 43.8 nM.

For `COc1ncccc1-c1ccc2nc(Nc3cc(CN4CCN(C(=O)CC(F)(F)F)CC4)ccn3)[nH]c2c1` [Example 15.01, 3,3,3-trifluoro-1-{4-[(2-{[6-(2-methoxypyridin-3-yl)-1H-benzimidazol-2-yl]amino}pyridin-4-yl)methyl]piperazin-1-yl}propan-1-one], the IC50 worked out at 339 nM.

`COc1cncnc1-c1ccc2nc(Nc3cc(CN4CCN(C(=O)N5CCCCC5)CC4)ccn3)[nH]c2c1` [Example 35.01.06, {4-[(2-{[6-(5-methoxypyrimidin-4-yl)-1H-benzimidazol-2-yl]amino}pyridin-4-yl)methyl]piperazin-1-yl}(piperidin-1-yl)methanone]: the IC50 was determined as 47.9 nM.

Regarding `CC(c1ccnc(Nc2nc3ccc(-c4ccnn4C)cc3[nH]2)c1)N1CCN(C(=O)OC(C)(C)C)CC1` (single isomer, unassigned) [Example 123.01, tert-butyl 4-[(1R or 1S)-1-(2-{[6-(1-methyl-1H-pyrazol-5-yl)-1H-benzimidazol-2-yl]amino}pyridin-4-yl)ethyl]piperazine-1-carboxylate], the IC50 is 36 nM.

Regarding `CCOc1ncnc(-c2ccc3nc(Nc4cc(CN5CCN(C(=O)OC(C)(C)C)CC5)ccn4)[nH]c3c2)c1OC` [Example 167.01, tert-butyl 4-[(2-{[6-(6-ethoxy-5-methoxypyrimidin-4-yl)-1H-benzimidazol-2-yl]amino}pyridin-4-yl)methyl]piperazine-1-carboxylate], the IC50 came to 222 nM.

In the case of `O=C(C1CC1)N1CCN(Cc2ccnc(Nc3nc4ccc(-c5ccsc5Cl)cc4[nH]3)c2)CC1` [Example 175.03, {4-[(2-{[6-(2-chlorothiophen-3-yl)-1H-benzimidazol-2-yl]amino}pyridin-4-yl)methyl]piperazin-1-yl}(cyclopropyl)methanone], the IC50 came to 223 nM.

For the compound `Cc1cc(-c2ccc3nc(Nc4cc(CN5CCN(C(=O)C6CCC6)CC5)ccn4)[nH]c3c2)ccn1` [Example 01.05, cyclobutyl{4-[(2-{[6-(2-methylpyridin-4-yl)-1H-benzimidazol-2-yl]amino}pyridin-4-yl)methyl]piperazin-1-yl}methanone], the IC50 amounted to 70.9 nM.

In the case of `COc1cc(-c2ccc3nc(Nc4cc(C(C)N5CCN(C(=O)CC(F)(F)F)CC5)ccn4)[nH]c3c2)ncn1` (racemic) [Example 34.02.01, (rac)-3,3,3-trifluoro-1-{4-[1-(2-{[6-(6-methoxypyrimidin-4-yl)-1H-benzimidazol-2-yl]amino}pyridin-4-yl)ethyl]piperazin-1-yl}propan-1-one], the IC50 was found to be 12.4 nM.

Turning to `Cc1noc(-c2ccc3nc(Nc4cc(CN5CCN(C(=O)CC(F)(F)F)CC5)ccn4)[nH]c3c2C)n1` [Example 54.01, 3,3,3-trifluoro-1-{4-[(2-{[7-methyl-6-(3-methyl-1,2,4-oxadiazol-5-yl)-1H-benzimidazol-2-yl]amino}pyridin-4-yl)methyl]piperazin-1-yl}propan-1-one], the IC50 was determined as 243 nM.

Consider `CCc1cc(-c2ccc3nc(Nc4cc(CN5CCN(C(=O)CC(F)(F)F)CC5)ccn4)[nH]c3c2)ncn1` [Example 91.02, 1-{4-[(2-{[6-(6-ethylpyrimidin-4-yl)-1H-benzimidazol-2-yl]amino}pyridin-4-yl)methyl]piperazin-1-yl}-3,3,3-trifluoropropan-1-one], for which the IC50 was 12 nM.

`CC(c1ccnc(Nc2nc3ccc(-c4cnn(CC(F)F)c4)cc3[nH]2)c1)N1CCN(C(=O)C2CC2)CC1` (single isomer, unassigned) [Example 87.02, cyclopropyl(4-{(1R or 1S)-1-[2-({6-[1-(2,2-difluoroethyl)-1H-pyrazol-4-yl]-1H-benzimidazol-2-yl}amino)pyridin-4-yl]ethyl}piperazin-1-yl)methanone]: the IC50 came to 2 nM.

Regarding `O=C(C1CC1)N1CCN(Cc2ccnc(Nc3nc4ccc(-c5ncnc(NCC6CC6)c5F)cc4[nH]3)c2)CC1` [Example 195.03, cyclopropyl[4-({2-[(6-{6-[(cyclopropylmethyl)amino]-5-fluoropyrimidin-4-yl}-1H-benzimidazol-2-yl)amino]pyridin-4-yl}methyl)piperazin-1-yl]methanone], the IC50 is 34.1 nM.

Take `COc1nccc(-c2ccc3nc(Nc4cc(CN5CCN(C(=O)C6CC6)CC5)cc(C(F)(F)F)n4)[nH]c3c2)n1` [Example 25.02.01, cyclopropyl(4-{[2-{[6-(2-methoxypyrimidin-4-yl)-1H-benzimidazol-2-yl]amino}-6-(trifluoromethyl)pyridin-4-yl]methyl}piperazin-1-yl)methanone]: the IC50 amounted to 346 nM.

With `CC(c1ccnc(Nc2nc3ccc(-c4ccnn4C(C)C)cc3[nH]2)c1)N1CCN(C(=O)OC(C)(C)C)CC1` (single isomer, unassigned) [Example 72.01, tert-butyl 4-{(1R or 1S)-1-[2-({6-[1-(propan-2-yl)-1H-pyrazol-5-yl]-1H-benzimidazol-2-yl}amino)pyridin-4-yl]ethyl}piperazine-1-carboxylate], the IC50 was 800 nM.

Regarding `O=C(CC(F)(F)F)N1CCN(Cc2ccnc(Nc3nc4ccc(-c5ccnc(C(F)(F)F)n5)cc4[nH]3)c2)CC1` [Example 27.04, 3,3,3-trifluoro-1-(4-{[2-({6-[2-(trifluoromethyl)pyrimidin-4-yl]-1H-benzimidazol-2-yl}amino)pyridin-4-yl]methyl}piperazin-1-yl)propan-1-one], the IC50 worked out at 197 nM.

Regarding `CC(C)(C)OC(=O)N1CCN(Cc2ccnc(Nc3nc4ccc(-c5cc(NCC6CC6)ncn5)cc4[nH]3)c2)CC1` [Example 142.01, tert-butyl 4-({2-[(6-{6-[(cyclopropylmethyl)amino]pyrimidin-4-yl}-1H-benzimidazol-2-yl)amino]pyridin-4-yl}methyl)piperazine-1-carboxylate], the IC50 turned out to be 7.5 nM.

For `CC(C)(C)Cc1nc(-c2ccc3nc(Nc4cc(CN5CCN(c6ccccc6Cl)CC5)ccn4)[nH]c3c2)no1` [Example 22.02, N-(4-{[4-(2-chlorophenyl)piperazin-1-yl]methyl}pyridin-2-yl)-6-[5-(2,2-dimethylpropyl)-1,2,4-oxadiazol-3-yl]-1H-benzimidazol-2-amine], the IC50 was found to be 779 nM.

Turning to `CC(c1ccnc(Nc2nc3ccc(-c4cc(OCC(F)(F)C(F)(F)F)ncn4)cc3[nH]2)c1)N1CCN(C(=O)CC(F)(F)F)CC1` (single isomer, unassigned) [Example 166.02, 3,3,3-trifluoro-1-(4-{(1R or 1S)-1-[2-({6-[6-(2,2,3,3,3-pentafluoropropoxy)pyrimidin-4-yl]-1H-benzimidazol-2-yl}amino)pyridin-4-yl]ethyl}piperazin-1-yl)propan-1-one], the IC50 worked out at 20.5 nM.

For `CC(c1ccnc(Nc2nc3ccc(-c4cnn(CC5CC5)c4)c(F)c3[nH]2)c1)N1CCN(C(=O)CC(F)(F)F)CC1` (single isomer, unassigned) [Example 121.02], the IC50 is 2.5 nM.

On to `CC(c1ccnc(Nc2nc3ccc(-c4cnn(CC5CC5)c4)c(Cl)c3[nH]2)c1)N1CCN(C(=O)C2CC2)CC1` (single isomer, unassigned) [Example 122.03, (4-{(1R or 1S)-1-[2-({7-chloro-6-[1-(cyclopropylmethyl)-1H-pyrazol-4-yl]-1H-benzimidazol-2-yl}amino)pyridin-4-yl]ethyl}piperazin-1-yl)(cyclopropyl)methanone], for which the IC50 was found to be 1.1 nM.

With `COc1cnccc1-c1ccc2nc(Nc3cc(CN4CCN(C(=O)C(C)(C)O)CC4)ccn3)[nH]c2c1` [Example 04.09, 2-hydroxy-1-{4-[(2-{[6-(3-methoxypyridin-4-yl)-1H-benzimidazol-2-yl]amino}pyridin-4-yl)methyl]piperazin-1-yl}-2-methylpropan-1-one], the IC50 is 28.5 nM.

As to `CC(c1ccnc(Nc2nc3ccc(-c4cc(OCC(F)(F)F)ncn4)cc3[nH]2)c1)N1CCN(C(=O)C2CC2)CC1` (single isomer, unassigned) [Example 119.03, cyclopropyl(4-{(1R or 1S)-1-[2-({6-[6-(2,2,2-trifluoroethoxy)pyrimidin-4-yl]-1H-benzimidazol-2-yl}amino)pyridin-4-yl]ethyl}piperazin-1-yl)methanone], the IC50 amounted to 5.93 nM.

Turning to `COc1c(C)ncnc1-c1ccc2nc(Nc3cc(C(C)N4CCN(C(=O)CC(F)(F)F)CC4)ccn3)[nH]c2c1` (single isomer, unassigned) [Example 83.03, 3,3,3-trifluoro-1-{4-[(1R or 1S)-1-(2-{[6-(5-methoxy-6-methylpyrimidin-4-yl)-1H-benzimidazol-2-yl]amino}pyridin-4-yl)ethyl]piperazin-1-yl}propan-1-one], the IC50 is 2.2 nM.

Turning to `Cc1noc(-c2ccc3nc(Nc4cc(CN5CCN(C(=O)C6CC6)CC5(C)C)ccn4)[nH]c3c2)n1` [Example 16.04.04, cyclopropyl{3,3-dimethyl-4-[(2-{[6-(3-methyl-1,2,4-oxadiazol-5-yl)-1H-benzimidazol-2-yl]amino}pyridin-4-yl)methyl]piperazin-1-yl}methanone], the IC50 amounted to 497 nM.
